Source: patent US10925286B2, “Synergistic chalcone containing composition of a nematicide” (TELLURIS BIOTECH INDIA PRIVATE LIMITED, priority 2017, dated 2021)

Assays:
[1] = system: J2 M. incognita; experiment: Bioassay for killing J2 juvenile nematodes (% mortality), 96-well plate, 5 days; assay type: in vivo, Meloidogyne incognita; settings: for effectiveness in killing juvenile nematodes: peptide alone (0.8 mg/ml where stated), Day 5
Description: (§1) Tomato plants were inoculated with M. incognita juveniles and maintained in a growth chamber. After at least two months, the M. incognita eggs were extracted from the roots for experiments. The procedure followed for extracting M. incognita eggs is explained below.
The root tissues were either chopped by hand using a surgical blade and a watch glass, or it was chopped up using a food processor. The chopped tissue was then placed in a bottle and washed with a 10% dilution of bleach. Under sterile conditions, the root solution was then poured through sieves (60 count sieve on top, 500 count sieve on the bottom). The crude egg collection was collected from the bottom of the 500 count sieve into 5 mL each of bleach and egg mixture in 15 mL Falcon tubes. 5 mL of 70% sucrose solution was then placed in each Falcon tube. A 1 mL layer of double distilled sterile water was then gently placed on top of the sucrose mixtures in each Falcon tube. The samples were then centrifuged for 5 minutes at 1200 rpm. The embryos that were suspended between the sucrose solution and the 1 mL water layer were collected in a total of 3 mL (top layer of 3 mL of the solution) from each Falcon tube into fresh 15 mL Falcon tubes. 10 mL of a 5% bleach solution was added and the eggs were vortexed for 10 minutes. The Falcon tubes were then centrifuged for 5 minutes at 2000 rpm. The supernatant was then removed, and the eggs were rinsed in 10 mL of sterile double distilled water and re-centrifuged for 5 minutes at 2000 rpm. This process was repeated two more times. After the last wash, 5 mL of supernatant was removed, while the remaining 5 mL of water was mixed with the eggs and placed into a 5 mL Petri dish. […]
(§2) As described earlier, equal number nematodes were incubated in various treatment solutions in a 96-well plate for 5 days and the potency of different combination of nematicides was tested by counting the number of nematodes dead or surviving on Day 5. Similarly, the effect of different combination of nematicide composition on hatching of nematode eggs was also counted.

[2] = system: M. incognita eggs; experiment: Egg hatching experiment, 96-well plate, 10 eggs per well, 16 days; assay type: in vivo, Meloidogyne incognita
Description: as §1
The root tissues were either chopped by hand using a surgical blade and a watch glass, or it was chopped up using a food processor. The chopped tissue was then placed in a bottle and washed with a 10% dilution of bleach. Under sterile conditions, the root solution was then poured through sieves (60 count sieve on top, 500 count sieve on the bottom). The crude egg collection was collected from the bottom of the 500 count sieve into 5 mL each of bleach and egg mixture in 15 mL Falcon tubes. 5 mL of 70% sucrose solution was then placed in each Falcon tube. A 1 mL layer of double distilled sterile water was then gently placed on top of the sucrose mixtures in each Falcon tube. The samples were then centrifuged for 5 minutes at 1200 rpm. The embryos that were suspended between the sucrose solution and the 1 mL water layer were collected in a total of 3 mL (top layer of 3 mL of the solution) from each Falcon tube into fresh 15 mL Falcon tubes. 10 mL of a 5% bleach solution was added and the eggs were vortexed for 10 minutes. The Falcon tubes were then centrifuged for 5 minutes at 2000 rpm. The supernatant was then removed, and the eggs were rinsed in 10 mL of sterile double distilled water and re-centrifuged for 5 minutes at 2000 rpm. This process was repeated two more times. After the last wash, 5 mL of supernatant was removed, while the remaining 5 mL of water was mixed with the eggs and placed into a 5 mL Petri dish. The eggs were then placed in an incubator at 25-27° C., and juvenile worms (J2 stage) hatched after about 10 days. The worms were kept in a 25-27° C. incubator for storage.
The bioassay is designed to test the ability of the mixture of peptides and chalcone to prevent egg hatching (% unhatched eggs). Each test was performed in a 96-well plate with 10 eggs per well. The eggs were incubated in each treatment for 16 days. Hatched vs unhatched eggs were determined by microscopic images.
as §2

[3] = system: nematodes; settings: cited from earlier work; for effective concentration for nematicidal activity: peptide alone; for nematicidal activity: peptide individually, 1 mg/ml

| Compound | effectiveness in killing juvenile nematodes [1] | hatched eggs by Day 16 ([2]; peptide alone, 0.8 mg/ml) | effective concentration for nematicidal activity [3] | nematicidal activity [3] [%] | death of juvenile nematodes on Day 5 ([1]; peptide alone, 0.8 mg/ml) | hatched eggs by Day 16 ([2]; chalcone alone, 10^−4-10^−5 M) [%] |
| --- | --- | --- | --- | --- | --- | --- |
| Peptide 3: 19 amino acids RQMLDRKLLLGNVPKQMTC (112-130 amino acid stretch of CED-4 protein, SEQ ID NO. 3) (Caenorhabditis elegans) | less effective | around 10% | about 1 mg/ml | 100 | – | – |
| Peptide 2: 15 amino acids DLLRPVVIAPQFSRQ (99-113 amino acid stretch of CED-4 protein, SEQ ID NO. 2) (Caenorhabditis elegans) | – | around 30% | about 1 mg/ml | 100 | 60-80% | – |
| O=C(/C=C/c1ccccc1)c1ccc(Cl)cc1Cl [chalcone 17, (2E)-1-(2,4-Dichlorophenyl)-3-phenyl-2-propen-1-one] | – | – | – | – | – | ~50 |
| Peptide 12: 12 amino acids FPKFMQLHQKFY (529-540 amino acid stretch of CED-4 protein, SEQ ID NO. 4) (Caenorhabditis elegans) | highly effective | around 20% | about 1 mg/ml | 100 | – | – |
| CCOc1ccc(C(=O)/C=C/c2ccccc2)cc1 [chalcone 25, (2E)-1-(4-Ethoxyphenyl)-3-phenyl-2-propen-1-one] | – | – | – | – | – | ~50 |
